Test results reported in US20240352070A1, “NOVEL CATHEPSIN INHIBITORS” (Ecole Polytechnique Federale de Lausanne (EPFL), priority 2021, published 2024).
pIC50: −log10 of the molar value. One block for each compound: values may come before it. Numbered stars: 1 amine (or outer) side, 2 acyl side, 3 side chain; on linkers, the order of the positions; unused ones are H or OH. Square brackets hold non-standard residues; d marks the D form. Peptide text beside a SMILES is read from it. Trp(3a,7a-dihydro) = N[C@@H](CC1=CNC2C=CC=CC12)C(=O)O; Butenoyl(2E,4-amino) = O=C(/C=C/CN[*:1])[*:2]; Dap(N3) = [N-]=[N+]=NC[C@H](N)C(=O)O; Pra = C#CC[C@H](N)C(=O)O

Experiments:
[1] = target: T1, CTSS in primary human B-cells (Homo sapiens, UniProt P25774); experiment: qABP assay on primary human B-cells; assay type: cell-based; settings: 2 different donors
T1 construct: endogenous in cells; host or cells: primary human B-cells (2 donors)
T1 sequence (P25774 115-331): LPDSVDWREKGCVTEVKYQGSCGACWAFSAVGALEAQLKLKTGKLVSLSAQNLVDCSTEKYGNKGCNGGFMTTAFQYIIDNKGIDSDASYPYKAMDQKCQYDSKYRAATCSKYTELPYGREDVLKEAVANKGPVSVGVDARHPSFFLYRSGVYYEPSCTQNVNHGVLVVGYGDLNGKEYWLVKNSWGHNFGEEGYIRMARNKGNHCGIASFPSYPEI
Source text: FIG. 11. Output of quenched activity-based probe (qABP) assay on primary human B-cells. The presence of a dark band at a precise molecular weight indicates to the detection of a strong activity of the corresponding cathepsin. Absence of a band means complete cathepsin inhibition. APeC=antibody-peptide conjugate. ab=antibody.

[2] = tested on: CTSS in WSU-DLCL2 cells; experiment: CD74 accumulation assay in WSU-DLCL2 cells; assay type: cell-based, human; settings: 48 hours, compared to PBS or antibody mixed to C10 in absence of linker
Experimental: (§1) FIG. 7. A-B CD74 accumulation after 48 hours-long anti-CD22 APeC treatment in WSU cells (A) and Raji cells (B). C-D CD74 accumulation after 48 hours-long anti-CD79 APeC treatment in WSU cells (C) and Raji cells (D). Single-cell fluorescence was measured by flow cytometry. CTSS inhibitor Petesicatib was used as positive control.
(§2) CD74 accumulation assay for efficacy assessment. To test the efficacy of our APeCs, 2×10^5 WSU-DLCL2 or Raji cells were incubated for two days with 300 or 500 ug/ml of APeC, in RPMI 1640 medium (ThermoFisher Scientific) supplemented with 10% FBS and 1% Penicillin-Streptomycin (ThermoFisher Scientific, cat. no. 15140122). After the first 24 h treatment, the cells were washed and resuspended in fresh APeC at the same treatment concentration. As negative controls, the same number of cells was either treated with PBS or with 300 ug/ml of the corresponding antibody previously incubated with C10 inhibitor in absence of DBCO-maleimide linker. […] Cells were then stained with anti-human CD74 antibody (BioLegend, cat. no. 357604) and fluorescence was measured by flow cytometry using BD LSRFortessa instrument (BD Biosciences). […] The gel was analysed by scanning in-gel fluorescence on a Typhoon Trio flat-bed laser scanner (GE Healthcare), and protein loading was confirmed by staining with Coomassie® Brilliant Blue R-250 (Schmidt GmbH). […]

[3] = tested on: CTSS in Raji cells; experiment: CD74 accumulation assay in Raji cells; assay type: cell-based, human; settings: 48 hours, compared to PBS or antibody mixed to C10 in absence of linker
Experimental: as §1, §2

[4] = target: T2, CTSS wild-type (Homo sapiens, UniProt P25774); experiment: FRET assay to test CTSS activity (wild-type); assay type: biochemical
T2 construct: made in house; host or cells: HEK293
T2 sequence (P25774 115-331): as above
Source text: (§3) Cathepsins protein expression and purification. For CTSS purification, the human CTSS sequence depleted of the lysosomal localization signal (amino acids 17 to 331) was amplified from pLVX plasmids expressing WT or Y132D CTSS using the following primers: […]
The PCR products were digested using Agel and Kpn1 restriction enzymes (NEB, cat #R3552S and #R3142S), then cloned in pHLsec plasmids carrying a secretion signal at the N-terminal of the MCS and a His-tag sequence at the C-terminal of the MCS. pHLsec-CTSS plasmids were transfected into HEK293 cells with PEI (polyethyleneimine) in presence of VPA (valproic acid). Proteins were purified from the supernatant using a 5 ml His-Trap FF column on an ÄKTA pure system (GE healthcare). Bound proteins were eluted using a 300 mM imidazole solution. Concentrated proteins were further purified by size exclusion chromatography on a HiLoad® 16/600 Superdex® 75 pg column (GE Healthcare) using PBS as mobile phase. Purified proteins were quantified by Nanodrop, diluted in a buffer containing 12.5 mM MES, 75 mM NaCl and 50% glycerol at ph 6.5 and stored at −20° C. […]
FRET (Fluorescence Resonance Energy Transfer) assay to test CTSS activity. […] The peptide was added to the activated CTSS (50 ul/well) and fluorescent emission (MCA) was measured with SpectraMax iD3 (Molecular Devices) in kinetic mode for three hours (excitation: 330 nm, emission: 390 nm). […]

[5] = target: T3, CTSS Y132D (Homo sapiens, UniProt P25774, Y132D); experiment: FRET assay with mutated CTSS Y132D; assay type: biochemical
T3 construct: made in house; host or cells: HEK293
T3 sequence (P25774 115-331 Y132D): as the sequence (P25774 115-331) above, with Y18D counted along it
Source text: as §3
The PCR products were digested using Agel and Kpn1 restriction enzymes (NEB, cat #R3552S and #R3142S), then cloned in pHLsec plasmids carrying a secretion signal at the N-terminal of the MCS and a His-tag sequence at the C-terminal of the MCS. pHLsec-CTSS plasmids were transfected into HEK293 cells with PEI (polyethyleneimine) in presence of VPA (valproic acid). Proteins were purified from the supernatant using a 5 ml His-Trap FF column on an ÄKTA pure system (GE healthcare). Bound proteins were eluted using a 300 mM imidazole solution. Concentrated proteins were further purified by size exclusion chromatography on a HiLoad® 16/600 Superdex® 75 pg column (GE Healthcare) using PBS as mobile phase. Purified proteins were quantified by Nanodrop, diluted in a buffer containing 12.5 mM MES, 75 mM NaCl and 50% glycerol at ph 6.5 and stored at −20° C. Purified CTSB and CTSH were purchased from RndSystems.
FRET (Fluorescence Resonance Energy Transfer) assay to test CTSS activity. For FRET experiments, CTSS-His was diluted to 10 μg/mL in assay buffer (50 mM NaOAc, 5 mM DTT, 250 mM NaCl), at pH 4.5 and incubated at 37° C. for 90 minutes to allow auto-activation. The protein was then diluted to 0.5 ng/ul in assay buffer and plated in 96-well plates (50 ul/well). […] The peptide was added to the activated CTSS (50 ul/well) and fluorescent emission (MCA) was measured with SpectraMax iD3 (Molecular Devices) in kinetic mode for three hours (excitation: 330 nm, emission: 390 nm).
It was recently reported that 5.7% of lymphoma patients harbour a specific gain of function mutation changing the tyrosine 132 in aspartate (Y132D) or asparagine (Y132N). […] This was measured through a FRET assay in which the inhibitor was incubated with CTSS Y132D. […]

[6] = target: T4, CTSB in MCF-7 cells (Homo sapiens, UniProt P07858); experiment: Quenched activity-based probe (qABP) assay in MCF-7 cells; assay type: cell-based; settings: 16 hours, 500 ug/ml APeC, compared to PBS or antibody mixed to C10 without linker
T4 construct: endogenous in cells; host or cells: MCF-7
Experimental: FIG. 8. Output of quenched activity-based probe (qABP) assay. The presence of a dark band corresponds to the detection of a strong activity of CTSB. Absence of a band means complete CTSB inhibition. APeC=antibody-peptide conjugate. Ab=antibody.
as §2, with “linker. Each treatment condition was tested in duplicates.” for “linker.”

[7] = tested on: WSU-DLCL2 cells; experiment: Internalization assay by flow cytometry; assay type: cell-based; settings: 100 ug/ml
Experimental: FIG. 6. A-B Results of internalization assay performed by incubating WSU-DLCL2 cells with the Epr-AF488 antibody for 3 hours at 37° C. (A) or 4° C. (B). Single-cell fluorescence was measured by flow cytometry.
Internalization assay. To test the internalization of the conjugated Epratuzumab antibody, 2×10^5 WSU-DLCL2 cells were incubated at 37° C. for 3 hours with 100 ug/ml of Epr-AF488 in PBS. As negative control, the same number of cells was incubated with 100 ug/ml of Epratuzumab previously incubated with AF488 dye in absence of DBCO-maleimide linker. Each experimental condition was tested in duplicates. Cells were then washed 3 times with PBS and 1 ul of anti-AF488 quencher antibody (ThermoFisher Scientific, A-11094) was added to half of the samples. Samples' fluorescence was measured by flow cytometry using Millipore Guava EasyCyte HT instrument (MilliporeSigma).

[8] = target: T5, cathepsin B (CTSB) (Homo sapiens, UniProt P07858); experiment: Specificity assay: FRET assay for CTSB activity; assay type: biochemical
T5 construct: purchased RndSystems
Experimental: (§4) Specificity assay. […] First, we used specific conditions to activate the enzymes. CTSB was diluted in a specific activation buffer (MES 25 mM, DTT 5 mM, pH 5) at 10 ug/ml, incubated at 37° C. for 2 h and then diluted to 1 ug/ml in assay buffer (MES 25 mM, pH 5) for the FRET assay. CTSH was diluted in a different activation buffer (MES 50 mM, CaCl2) 10 mM, NaCl 150 mM, pH 6.5) at 200 ug/ml. In addition, as co-stimulatory activator we used thermolysin diluted at 100 ug/ml in activation buffer and then mixed with an equal volume of the diluted CTSH. The solution was incubated for 1 h at room temperature and then we added 2 mM Phosphoramidon diluted in assay buffer (MES 50 mM, pH 6.5) and we incubated the mix for 10 minutes at room temperature. Lastly, we added an equal volume of assay buffer containing 20 mM DTT and incubated the solution for 5 minutes at room temperature. For the FRET assay, we diluted both CTSH, and CTSB at 1 ug/ml in their specific assay buffer and incubated them with a specific substrate. We used as substrate KPPKPVSD in CTSB FRET assays and KLRMKLPKP in CTSH FRET assays and we tested two doses of our P3 inhibitor (20 uM and 50 uM). Fluorescence emission was measured with SpectraMax iD3 (Molecular Devices) in kinetic mode over three hours (excitation: 330 nm, emission: 390 nm).

[9] = target: T6, cathepsin H (CTSH) (Homo sapiens, UniProt P09668); experiment: Specificity assay: FRET assay for CTSH activity; assay type: biochemical; settings: at 20 uM or 50 uM, 180 minutes
T6 construct: purchased RndSystems
T6 sequence (P09668 116-335 limits assumed, other chains not shown): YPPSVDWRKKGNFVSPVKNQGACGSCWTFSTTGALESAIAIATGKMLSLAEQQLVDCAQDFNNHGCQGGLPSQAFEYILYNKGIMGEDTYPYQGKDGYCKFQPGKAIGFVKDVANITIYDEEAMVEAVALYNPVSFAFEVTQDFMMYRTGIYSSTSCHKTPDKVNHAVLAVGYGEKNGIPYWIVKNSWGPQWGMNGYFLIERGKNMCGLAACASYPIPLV
Experimental: as §4

[10] = at 20 uM and at 50 uM, FRET, 180 minutes

Compound: CSCC[C@H](NC(=O)[C@H](CCCNC(=N)N)NC(=O)[C@H](Cc1c[nH]cn1)NC(=O)[C@H](CCCCN)NC(=O)[C@H](CN=[N+]=[N-])NC(C)=O)C(=O)NC/C=C/C(=O)N[C@H](C(=O)N[C@@H](CCSC)C(=O)N[C@@H](Cc1c[nH]c2ccccc12)C(N)=O)C(C)C [C10, KHRM(Y)VMW] (Ac-[Dap(N3)]KHRM[Butenoyl(2E,4-amino)]VMW-NH2)
- pIC50 ([4]; FRET assay, dose-response, 50 minutes of incubation, wild-type CTSS): 7.31
- inhibition at 0.5 µM ([5]; at 500 nM, 50 minutes of incubation, read-out: reduction of CTSS Y132D activity (inhibition efficiency)): > 90%
- reduction of CTSS Y132D activity ([5]; tested at 50 nM, 50 minutes of incubation): more than 50%

Compound: Epr-AF488: Epratuzumab antibody conjugated with AlexaFluor-488 azide-dye instead of C10
- internalization by lymphoma cells (inaccessible to quencher antibody) ([7]; 3 hours at 37° C.): internalized
- binding to lymphoma cells ([7]; 3 hours, flow cytometry): still able to bind lymphoma cells

Compound: CSCC[C@H](NC(=O)[C@H](CC1=CNC2C=CC=CC12)NC(=O)/C=C/CNC(=O)[C@H](Cc1ccc(O)cc1)NC(=O)[C@H](CCCNC(=N)N)NC(=O)[C@H](CCCNC(=N)N)NC(=O)[C@H](CCCCN)NC(=O)[C@H](CN=[N+]=[N-])NC(C)=O)C(=O)N[C@@H](CC1=CNC2C=CC=CC12)C(N)=O (some centres unmarked) [D5, KRRY(Y)WMW] (Ac-[Dap(N3)]KRRY[Butenoyl(2E,4-amino)][Trp(3a,7a-dihydro)]M[Trp(3a,7a-dihydro)]-NH2)
- pIC50 ([8]; dose-response, 50 minutes of incubation): 7.21

Further lines, with some results ahead:

- CTSS inhibition (qABP band) [1]: comparable
Compound: Cn1cc(-c2ccc(S(=O)(=O)[C@@H]3C[C@@H](C(=O)NC4(C#N)CC4)N(C(=O)C4(C(F)(F)F)CC4)C3)c(C(F)(F)F)c2)cn1 [Petesicatib]
- CD74 accumulation [2]: lower than what we obtained with lower doses of our APeCs
- CD74 accumulation [3]: lower than what we obtained with lower doses of our APeCs

- residual CTSB activity [6]: inhibited CTSB activity as expected
Compound: CC(C)C[C@H](NC(=O)[C@H]1O[C@@H]1C(=O)O)C(=O)NCCCCN=C(N)N [E64]

- inhibitory activity on CTSB [8]: some inhibitory activity
- inhibition of wild-type CTSS [4, 10]: able to inhibit
- inhibition of CTSH [9]: not significantly inhibited
- inhibition of mutant form of CTSS (Y132D) [5, 10]: able to inhibit
Compound: C#CC[C@H](NC(C)=O)C(=O)N[C@@H](CCCCN)C(=O)N[C@@H](CC(C)C)C(=O)N[C@@H](CCCNC(=N)N)C(=O)N[C@@H](CCSC)C(=O)NC/C=C/C(=O)N1CCC[C@H]1C(=O)N[C@@H](CCCCN)C(=O)N[C@@H](CC(=O)O)C(N)=O [P3, KLRM(Y)PKD] (Ac-[Pra]KLRM[Butenoyl(2E,4-amino)]PKD-NH2)
